US9932340B2, “Substituted indoles” (AbbVie Inc., priority 2014, dated 2018)

Each molecule was assayed against SUV420H1 enzyme (Homo sapiens, UniProt Q4FZB7) (assay: TR-FRET SAH SUV420H1 enzyme inhibition assay). Settings: Histone Peptide H4(8-30)me1 and SAM, overnight at room temp, TR-FRET detection of SAH, read-out: TR-FRET SAH_SUV420H1 IC50.
Chain of SUV420H1 enzyme (Q4FZB7 whole entry): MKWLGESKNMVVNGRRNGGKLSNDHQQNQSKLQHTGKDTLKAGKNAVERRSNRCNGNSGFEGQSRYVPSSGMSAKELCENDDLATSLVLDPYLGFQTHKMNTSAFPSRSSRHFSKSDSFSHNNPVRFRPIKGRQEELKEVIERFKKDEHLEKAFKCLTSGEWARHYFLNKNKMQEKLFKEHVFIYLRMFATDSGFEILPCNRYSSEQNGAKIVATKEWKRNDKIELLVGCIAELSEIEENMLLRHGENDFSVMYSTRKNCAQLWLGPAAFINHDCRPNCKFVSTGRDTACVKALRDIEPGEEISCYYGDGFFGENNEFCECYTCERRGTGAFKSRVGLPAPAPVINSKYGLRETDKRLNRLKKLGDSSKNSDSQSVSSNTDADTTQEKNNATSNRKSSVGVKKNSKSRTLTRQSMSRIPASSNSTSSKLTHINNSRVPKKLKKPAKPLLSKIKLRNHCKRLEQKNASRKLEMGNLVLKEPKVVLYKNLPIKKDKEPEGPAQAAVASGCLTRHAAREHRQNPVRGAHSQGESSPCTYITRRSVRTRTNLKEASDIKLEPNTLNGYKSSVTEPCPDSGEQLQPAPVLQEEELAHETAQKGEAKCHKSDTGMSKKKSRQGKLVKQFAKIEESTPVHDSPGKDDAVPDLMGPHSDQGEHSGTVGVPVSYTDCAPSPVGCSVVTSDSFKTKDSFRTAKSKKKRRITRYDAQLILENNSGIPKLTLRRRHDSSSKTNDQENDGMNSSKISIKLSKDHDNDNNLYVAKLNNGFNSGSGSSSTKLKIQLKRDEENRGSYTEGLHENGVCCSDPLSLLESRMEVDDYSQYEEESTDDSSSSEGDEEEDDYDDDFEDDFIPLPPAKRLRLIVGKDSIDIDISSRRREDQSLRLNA
Format: biochemical
Method: Test compounds were dispensed by a Labcyte Echo in 384-well low volume assay plates with 3-fold serial dilutions from 50 μM to 0.00075 μM. 5 μL of SUV420H1 enzyme (Abbvie) at 90 nM was added to all wells except the no enzyme control wells, and incubated for 30 minutes at room temp before 5 μL of Histone Peptide H4(8-30)me1 (Anaspec) at 5 nM and SAM at 4 nM was added to all wells. The plates were incubated in a humidified chamber overnight at room temp and then 10 μL of the detection reagent that contained RIPA buffer (50 mM Tris-HCl, pH 8.0, 150 mM sodium chloride, 1.0% Igepal CA-630 (NP-40), 0.5% sodium deoxycholate and 0.1% sodium dodecyl sulfate) (Sigma) with 2 nM of Terbium chelate anti S-adenosyl-L-homocysteine (SAH) (Abbvie) antibody and Oregon Green labeled SAH at 4 nM was added. The plates were further incubated for 4 hours at room temperature. The plates were read in a Perkin Elmer Envision using a TR-FRET protocol with Excitation set at 335 nm and Emission at 520 and 495 nm. To generate dose response curves the data is normalized to percent inhibition by setting the average of the plus and minus enzyme control wells to 0% and 100% inhibition respectively. The IC50 values for the compounds are generated by fitting the normalized data with Accelrys Assay Explorer 3.3 to a sigmoidal curve model using […] regression, Y=(100*x^n)/(K^n+x^n), where Y is the measured response, x is the compound concentration, n is the Hill Slope and K is the IC50 and the lower and higher asymptotes are constrained to 0 and 100 respectively.
An IC50 of 1330 nM was found for `Cc1cccc(-c2ccc(Cn3cnc4c(N)ncnc43)c3[nH]c(CN)cc23)c1` [Example 76, 9-{[2-(aminomethyl)-4-(3-methylphenyl)-1H-indol-7-yl]methyl}-9H-purin-6-amine] in this work. An IC50 of 765 nM was found for `CCCCc1nc2cc(C(=O)NCc3cc4cc(Cl)cc(Cn5cnc6c(N)ncnc65)c4[nH]3)ccc2o1` [Example 379, N-({7-[(6-amino-9H-purin-9-yl)methyl]-5-chloro-1H-indol-2-yl}methyl)-2-butyl-1,3-benzoxazole-5-carboxamide] in this work. An IC50 of 4290 nM was found for `CC(C)c1ccc(Cn2cnc3c(N)ncnc32)c2[nH]c(CN)cc12` [Example 66, 9-{[2-(aminomethyl)-4-(propan-2-yl)-1H-indol-7-yl]methyl}-9H-purin-6-amine] in this work. An IC50 of 2650 nM was found for `Nc1ncnc2c1ncn2Cc1cc(Cl)cc2cc(CNC(=O)c3ccc4cc[nH]c4c3)[nH]c12` [Example 356, N-({7-[(6-amino-9H-purin-9-yl)methyl]-5-chloro-1H-indol-2-yl}methyl)-1H-indole-6-carboxamide] in this work. An IC50 of 20300 nM was found for `NCc1cc2ccc(-c3ccccc3)c(Cn3cnc4c(N)ncnc43)c2[nH]1` [Example 61, 9-{[2-(aminomethyl)-6-phenyl-1H-indol-7-yl]methyl}-9H-purin-6-amine] in this work. An IC50 of 29900 nM was found for `Nc1ncnc2c1ncn2Cc1cc(Cl)cc2cc(CNC(=O)c3ccccc3N3CCCCC3)[nH]c12` [Example 322, N-({7-[(6-amino-9H-purin-9-yl)methyl]-5-chloro-1H-indol-2-yl}methyl)-2-(piperidin-1-yl)benzamide] in this work. An IC50 of 9480 nM was found for `Nc1ncnc2c1ncn2Cc1cc(Cl)cc2cc(CNC(=O)c3ccn[nH]3)[nH]c12` [Example 142, N-({7-[(6-amino-9H-purin-9-yl)methyl]-5-chloro-1H-indol-2-yl}methyl)-1H-pyrazole-5-carboxamide] in this work. An IC50 of 225 nM was found for `Cc1ccc(-c2cc(Cn3cnc4c(N)ncnc43)c3[nH]c(CNC(=O)c4c(C)noc4C)cc3c2)cc1` [Example 167, N-({7-[(6-amino-9H-purin-9-yl)methyl]-5-(4-methylphenyl)-1H-indol-2-yl}methyl)-3,5-dimethyl-1,2-oxazole-4-carboxamide] in this work. An IC50 of 382 nM was found for `Cc1nocc1C(=O)NCc1cc2cc(Cl)cc(Cn3cnc4c(N)ncnc43)c2[nH]1` [Example 150, N-({7-[(6-amino-9H-purin-9-yl)methyl]-5-chloro-1H-indol-2-yl}methyl)-3-methyl-1,2-oxazole-4-carboxamide] in this work. An IC50 of 1930 nM was found for `CC(C)c1ccccc1C(=O)NCc1cc2cc(Cl)cc(Cn3cnc4c(N)ncnc43)c2[nH]1` [Example 314, N-({7-[(6-amino-9H-purin-9-yl)methyl]-5-chloro-1H-indol-2-yl}methyl)-2-(propan-2-yl)benzamide] in this work. An IC50 of 18400 nM was found for `Nc1ncnc2c1ncn2Cc1cc(Cl)cc2cc(CNC(=O)[C@H]3CCC(=O)N3)[nH]c12` [Example 118, (2R)—N-({7-[(6-amino-9H-purin-9-yl)methyl]-5-chloro-1H-indol-2-yl}methyl)-5-oxopyrrolidine-2-carboxamide] in this work. An IC50 of 767 nM was found for `Nc1ncnc2c1ncn2Cc1cc(Cl)cc2cc(CNC(=O)c3cnsc3)[nH]c12` [Example 139, N-({7-[(6-amino-9H-purin-9-yl)methyl]-5-chloro-1H-indol-2-yl}methyl)-1,2-thiazole-4-carboxamide] in this work. An IC50 of 3080 nM was found for `CCc1ccc(Cn2cnc3c(N)ncnc32)c2[nH]c(CN)cc12` [Example 64, 9-{[2-(aminomethyl)-4-ethyl-1H-indol-7-yl]methyl}-9H-purin-6-amine] in this work. An IC50 of 3640 nM was found for `Nc1ncnc2c1ncn2Cc1cc(Cl)cc2cc(CNCc3cc(Cl)cc(Cl)c3)[nH]c12` [Example 212, 9-[(5-chloro-2-{[(3,5-dichlorobenzyl)amino]methyl}-1H-indol-7-yl)methyl]-9H-purin-6-amine] in this work. An IC50 of 31900 nM was found for `Nc1ncnc2c1ncn2Cc1cc(Cl)cc2cc(CNC(=O)CC3CCCCC3)[nH]c12` [Example 133, N-({7-[(6-amino-9H-purin-9-yl)methyl]-5-chloro-1H-indol-2-yl}methyl)-2-cyclohexylacetamide] in this work. An IC50 of 244 nM was found for `NCc1cc2cc(-c3cccc(N4CCOCC4)c3)cc(Cn3cnc4c(N)ncnc43)c2[nH]1` [Example 52, 9-({2-(aminomethyl)-5-[3-(morpholin-4-yl)phenyl]-1H-indol-7-yl}methyl)-9H-purin-6-amine] in this work. An IC50 of 72.3 nM was found for `Cc1cc(C#N)ccc1C(=O)NCc1cc2cc(Cl)cc(Cn3cnc4c(N)ncnc43)c2[nH]1` [Example 303, N-({7-[(6-amino-9H-purin-9-yl)methyl]-5-chloro-1H-indol-2-yl}methyl)-4-cyano-2-methylbenzamide] in this work. An IC50 of 2740 nM was found for `Nc1ncnc2c1ncn2Cc1cc(Cl)cc2cc(CNC(=O)c3ccc4[nH]ncc4c3F)[nH]c12` [Example 350, N-({7-[(6-amino-9H-purin-9-yl)methyl]-5-chloro-1H-indol-2-yl}methyl)-4-fluoro-1H-indazole-5-carboxamide] in this work. An IC50 of 1170 nM was found for `Cc1ccc(-c2cc(Cn3cnc4c(N)ncnc43)c3[nH]c(CN)cc3c2)cc1` [Example 30, 9-{[2-(aminomethyl)-5-(4-methylphenyl)-1H-indol-7-yl]methyl}-9H-purin-6-amine] in this work. An IC50 of 747 nM was found for `Cn1ncc2ccc(C(=O)NCc3cc4cc(Cl)cc(Cn5cnc6c(N)ncnc65)c4[nH]3)cc21` [Example 360, N-({7-[(6-amino-9H-purin-9-yl)methyl]-5-chloro-1H-indol-2-yl}methyl)-1-methyl-1H-indazole-6-carboxamide] in this work. An IC50 of 164 nM was found for `N#Cc1ccc(C(=O)NCc2cc3cc(Cl)cc(Cn4cnc5c(N)ncnc54)c3[nH]2)cn1` [Example 240, N-({7-[(6-amino-9H-purin-9-yl)methyl]-5-choro-1H-indol-2-yl}methyl)-6-cyanopyridine-3-carboxamide] in this work. An IC50 of 780 nM was found for `NCc1cc2cc(-c3ccncc3)cc(Cn3cnc4c(N)ncnc43)c2[nH]1` [Example 21, 9-{[2-(aminomethyl)-5-(pyridin-4-yl)-1H-indol-7-yl]methyl}-9H-purin-6-amine] in this work. An IC50 of 911 nM was found for `CS(=O)(=O)c1ccc(C(=O)NCc2cc3cc(Cl)cc(Cn4cnc5c(N)ncnc54)c3[nH]2)c(Cl)c1` [Example 266, N-({7-[(6-amino-9H-purin-9-yl)methyl]-5-chloro-1H-indol-2-yl}methyl)-2-chloro-4-(methylsulfonyl)benzamide] in this work. An IC50 of 947 nM was found for `Nc1ncnc2c1ncn2Cc1cc(Cl)cc2cc(CNC(=O)c3ccc4cn[nH]c4c3)[nH]c12` [Example 342, N-({7-[(6-amino-9H-purin-9-yl)methyl]-5-chloro-1H-indol-2-yl}methyl)-1H-indazole-6-carboxamide] in this work. An IC50 of 3430 nM was found for `N#Cc1ccc(CNCc2cc3cc(Cl)cc(Cn4cnc5c(N)ncnc54)c3[nH]2)cc1` [Example 267, 4-{[({7-[(6-amino-9H-purin-9-yl)methyl]-5-chloro-1H-indol-2-yl}methyl)amino]methyl}benzonitrile] in this work. An IC50 of 831 nM was found for `N#Cc1cccc(-c2ccc(Cn3cnc4c(N)ncnc43)c3[nH]c(CN)cc23)c1` [Example 83, 3-{2-(aminomethyl)-7-[(6-amino-9H-purin-9-yl)methyl]-1H-indol-4-yl}benzonitrile] in this work. An IC50 of 560 nM was found for `COC(=O)c1ccc(-c2cc(Cn3cnc4c(N)ncnc43)c3[nH]c(CN)cc3c2)cc1` [Example 44, methyl 4-{2-(aminomethyl)-7-[(6-amino-9H-purin-9-yl)methyl]-1H-indol-5-yl}benzoate] in this work.
